The test system of data set [1] is ACE. More on the design: method as in 5 sources, ref 34 = [34]; PMID 12843654; doi:10.1271/bbb.67.1278; 34. Kuba M. Tanaka K. Tawata S. Takeda Y. Yasuda M. Angiotensin I-converting enzyme inhibitory peptides isolated from tofuyo fermented soybean food Biosci. Biotechnol. Biochem. 2003 67 1278 1283 10.12 ||| ref 33 = [33]; PMID 25410725; doi:10.1002/bab.1321; 33. Sornwatana T. Bangphoomi K. Roytrakul S. Wetprasit N. Choowongkomon K. Ratanapo S. Chebulin: Terminalia chebula Retz. fruit-derived peptide with angiotensin-I–converting enzyme inhibitory activity ||| ref 35 = [35]; doi:10.1016/j.foodchem.2010.05.026; 35. Jiang Z. Tian B. Brodcrob A. Huo G. Production, analysis and in vivo evaluation of novel angiotensin-I-converting enzyme inhibitory peptides from bovine casein Food Chem. 2010 123 779 786 10.1016/ ||| ref 7 = [7]; doi:10.1016/j.foodchem.2009.04.086; 7. Lee S.H. Qian Z.J. Kim S.K. A novel angiotensin I converting enzyme inhibitory peptide from tuna frame protein hydrolysate and its antihypertensive effect in spontaneously hypertensive rats Food Ch ||| ref 36 = [36]; PMID 23140680; doi:10.1016/j.foodchem.2011.01.010; 36. Jang J.H. Jeong S.C. Kim J.H. Lee Y.H. Ju Y.C. Lee J.S. Characterisation of a new antihypertensive angiotensin I-converting enzyme inhibitory peptide from Pleurotus cornucopiae Food Chem. 2011 127. Conditions: cited from earlier work; for IC50: read-out: IC50 (ACE, non-competitive peptide).

The subject of data set [2] is pepsin and pancreatin. Kind of data set: In vitro simulated gastrointestinal digestion, then ACE-inhibitory activity assay and ESI-MS. In kind it is in vitro ADME. How it is done:
Pepsin (1 mg) was added, and the mixture was stirred at 37 °C for 2 h. Then, the pH was adjusted to 6 with 0.9 M NaHCO3, and afterwards to 7.5 with 1 M NaOH. Pancreatin (1 mg) was added, and the solution was incubated at 37 °C for 4 h.

The mark [3] stands for this setting: from Pleurotus cornucopiae mushroom.

Entries after “also recorded” stand apart in the source; their conditions may differ. Read-outs that look alike come from different tables or passages of the source. Peptide text beside a SMILES is read from it.

Turning to RLSGQTIEVTSEYLFRH, in data set [1] (setting [3]), the “IC50 (ACE, non-competitive peptide)” value was 1100 µg/mL.

RLPSEFDLSAFLRA: the “IC50 (ACE, non-competitive peptide)” value in data set [1] (setting [3]) is 450 µg/mL.

As to RYPSYG, in data set [1] (from bovine casein hydrolysate), the “IC50 (ACE, non-competitive peptide)” value was 54 µg/mL.

In general, IC50 refers to the point on the concentration scale where inhibition reaches its midpoint. As to DENSKF, in data set [1] (from fruits of T. chebula Retz.), the half-inhibitory concentration (IC50) was 100 µM.

As to GDLGKTTTVSNWSPPKYKDTP, the IC50 in data set [1] (from tuna frame protein hydrolysate) was 11.3 µM.

On to `N=C(N)NCCC[C@H](NC(=O)[C@H](CC(=O)O)NC(=O)[C@@H](N)CC(N)=O)C(=O)N1CCC[C@H]1C(=O)O` [NDRP] (H-NDRP-OH), for which the “maximal ACE inhibition of the in vitro-digested sample” value in data set [2] (10 mg mL−1 in H2O, pepsin, pH 2, 37 °C, 2 h, then pancreatin, pH 7.5, 37 °C, 4 h, enzymes deactivated in boiling water bath 10 min, freeze-dried, read-out ACE assay) is 82.47 ± 1.07%. Also, the “residual ACE-inhibitory activity of the digested sample relative to pure peptide” value in data set [2] (after pepsin (pH 2, 2 h) and pancreatin (pH 7.5, 4 h) at 37 °C, ratio of maximal ACE inhibition, digested vs pure NDRP) is recorded as 94%. Further, the “stability toward in vitro simulated gastrointestinal digestion (in words)” value in data set [2] (pepsin (pH 2, 2 h) then pancreatin (pH 7.5, 4 h), 37 °C, ACE assay and ESI-MS (peak of intact peptide observed)) is “stable towards gastrointestinal simulated digestion; also recorded: might be resistant to gastrointestinal digestion; also recorded: highly stable”.

Regarding DERF, the “IC50 (ACE, non-competitive peptide)” value in data set [1] (from bovine casein hydrolysate) is 21 µg/mL.
